In ChEMBL document CHEMBL6074671, “Discovery of Pyridine-2-Carboxamides Derivatives as Potent and Selective HPK1 Inhibitors for the Treatment of Cancer” (J Med Chem, 2024):
≈ marks a conversion by molar mass, not a printed value.

Key:
[1] = Kinetic solubility of the compound in PBS buffer at pH 7.4 measured after 24 hrs by HPL-UV analysis; assay type: physicochemical; settings: read-out: Kinetic_solubility
[2] = in vivo; settings: cynomolgus monkey, iv, 1 mg/kg
Description: Volume of distribution in Cynomolgus monkey at 1 mg/kg, iv

[3] = in vivo; settings: Balb/c, mouse, iv, 1 mg/kg
Description: Volume of distribution in Balb/c mouse at 1 mg/kg, iv

[4] = Effect on IL-2 secretion in human T cells by ELISA method; assay type: functional, cell-based; settings: T-cell
[5] = Genotoxicity in Salmonella typhimurium TA1535 incubated for 48 to 72 hrs in presence of S9 fraction by AMES test; assay type: toxicity, subcellular; settings: salmonella enterica subsp. enterica serovar typhimurium, time 48-72 hrs
[6] = biological target: Tyrosine-protein kinase Lyn (Homo sapiens, UniProt P07948); test: Inhibition of LYNa (unknown origin)
Tyrosine-protein kinase Lyn, sequence (P07948 whole entry): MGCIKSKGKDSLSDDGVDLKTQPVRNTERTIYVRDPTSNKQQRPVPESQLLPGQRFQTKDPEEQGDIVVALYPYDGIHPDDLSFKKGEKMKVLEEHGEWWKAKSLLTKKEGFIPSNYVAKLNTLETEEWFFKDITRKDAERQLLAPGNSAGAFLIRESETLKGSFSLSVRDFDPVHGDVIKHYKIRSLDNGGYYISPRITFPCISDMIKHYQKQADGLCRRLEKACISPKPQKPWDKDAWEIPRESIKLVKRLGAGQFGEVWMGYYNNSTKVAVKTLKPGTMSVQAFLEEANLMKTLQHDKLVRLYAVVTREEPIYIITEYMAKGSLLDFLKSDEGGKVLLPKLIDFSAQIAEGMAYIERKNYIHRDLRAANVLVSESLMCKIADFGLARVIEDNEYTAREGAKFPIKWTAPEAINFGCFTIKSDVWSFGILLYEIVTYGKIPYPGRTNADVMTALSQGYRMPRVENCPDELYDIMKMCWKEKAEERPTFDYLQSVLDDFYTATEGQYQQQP

[7] = Oral bioavailability n Sprague-Dawley rat at 10 mg/kg; assay type: ADME, organism-based; settings: in vivo
[8] = Toxicity in C57BL/6 mouse implanted with mouse MC38 cells assessed as effect on body weight loss at low dose, po BID measured after 12 days; assay type: organism-based; settings: in vivo, 288 h, time 12 day
[9] = biological target: Proto-oncogene tyrosine-protein kinase receptor Ret (Homo sapiens, UniProt P07949); test: Inhibition of RET (unknown origin)
[10] = biological target: T1, Mitogen-activated protein kinase kinase kinase kinase 3 (Homo sapiens, UniProt Q8IVH8); test: Inhibition of human recombinant GST-tagged MAP4K3 ([…]) extracted from Baculovirus expression system
T1 sequence (Q8IVH8 whole entry): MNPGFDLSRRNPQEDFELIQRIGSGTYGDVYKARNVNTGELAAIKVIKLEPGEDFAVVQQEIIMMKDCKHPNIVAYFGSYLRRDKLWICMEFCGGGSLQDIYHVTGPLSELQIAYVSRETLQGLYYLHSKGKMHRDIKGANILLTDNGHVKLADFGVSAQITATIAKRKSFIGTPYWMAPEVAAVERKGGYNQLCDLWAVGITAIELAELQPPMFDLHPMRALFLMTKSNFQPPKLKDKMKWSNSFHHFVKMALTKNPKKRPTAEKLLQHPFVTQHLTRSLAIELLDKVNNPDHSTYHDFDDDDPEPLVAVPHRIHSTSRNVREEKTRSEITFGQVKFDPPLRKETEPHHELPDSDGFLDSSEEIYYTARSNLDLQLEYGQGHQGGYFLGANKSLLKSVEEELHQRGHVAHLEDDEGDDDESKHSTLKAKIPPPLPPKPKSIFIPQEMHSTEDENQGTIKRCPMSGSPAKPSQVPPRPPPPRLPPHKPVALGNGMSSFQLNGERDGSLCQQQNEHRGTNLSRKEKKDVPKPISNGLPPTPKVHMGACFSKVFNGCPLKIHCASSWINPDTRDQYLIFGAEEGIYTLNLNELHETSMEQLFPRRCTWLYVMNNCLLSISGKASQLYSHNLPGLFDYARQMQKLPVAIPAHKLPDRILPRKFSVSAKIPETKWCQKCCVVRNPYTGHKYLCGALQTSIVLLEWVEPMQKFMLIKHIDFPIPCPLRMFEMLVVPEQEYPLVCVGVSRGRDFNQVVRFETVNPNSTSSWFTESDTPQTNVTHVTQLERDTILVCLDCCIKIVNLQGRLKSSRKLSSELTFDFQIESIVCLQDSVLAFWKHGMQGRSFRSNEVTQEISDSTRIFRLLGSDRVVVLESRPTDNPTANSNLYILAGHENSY

[11] = biological target: Cyclin-dependent kinase 2 (Homo sapiens, UniProt P24941); test: Inhibition of CDK2 (unknown origin)
[12] = biological target: Tyrosine-protein kinase ITK/TSK (Homo sapiens, UniProt Q08881); test: Inhibition of ITK (unknown origin)
Tyrosine-protein kinase ITK/TSK, sequence (Q08881 whole entry): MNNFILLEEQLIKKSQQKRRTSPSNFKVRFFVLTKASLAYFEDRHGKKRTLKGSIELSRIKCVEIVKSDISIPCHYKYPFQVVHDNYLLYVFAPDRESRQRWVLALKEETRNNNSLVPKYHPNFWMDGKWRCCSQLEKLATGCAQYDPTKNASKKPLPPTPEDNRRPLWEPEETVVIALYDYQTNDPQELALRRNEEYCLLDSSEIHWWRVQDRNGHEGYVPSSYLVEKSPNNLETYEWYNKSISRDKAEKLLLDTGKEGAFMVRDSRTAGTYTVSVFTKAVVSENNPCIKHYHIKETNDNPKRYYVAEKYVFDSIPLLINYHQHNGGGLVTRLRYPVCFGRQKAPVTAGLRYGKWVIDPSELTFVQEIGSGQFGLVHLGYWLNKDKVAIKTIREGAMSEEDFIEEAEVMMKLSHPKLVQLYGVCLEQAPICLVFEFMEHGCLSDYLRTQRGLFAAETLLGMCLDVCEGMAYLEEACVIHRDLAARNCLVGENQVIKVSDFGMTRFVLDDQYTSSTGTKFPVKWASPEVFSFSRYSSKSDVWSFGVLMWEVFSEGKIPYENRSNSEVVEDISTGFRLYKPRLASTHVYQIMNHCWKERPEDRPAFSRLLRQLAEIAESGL

[13] = in vivo; settings: Beagle, dog, iv, 1 mg/kg
Description: Volume of distribution in Beagle dog at 1 mg/kg, iv

[14] = biological target: Mitogen-activated protein kinase kinase kinase kinase 4 (Homo sapiens, UniProt O95819); test: Inhibition of catalytic domain N-terminal GST tagged human MAP4K4 (1 to 328 residues) expressed in insect Sf21 cells
[15] = biological target: Cytochrome P450 2C9 (Homo sapiens, UniProt P11712); test: Inhibition of CYP2C9 in human liver microsomes using diclofenac 4-hydroxylation as substrate incubated for 10 mins in presence of NADPH by LC-MS/MS analysis; assay type: ADME, Microsome
Cytochrome P450 2C9, sequence (P11712 whole entry): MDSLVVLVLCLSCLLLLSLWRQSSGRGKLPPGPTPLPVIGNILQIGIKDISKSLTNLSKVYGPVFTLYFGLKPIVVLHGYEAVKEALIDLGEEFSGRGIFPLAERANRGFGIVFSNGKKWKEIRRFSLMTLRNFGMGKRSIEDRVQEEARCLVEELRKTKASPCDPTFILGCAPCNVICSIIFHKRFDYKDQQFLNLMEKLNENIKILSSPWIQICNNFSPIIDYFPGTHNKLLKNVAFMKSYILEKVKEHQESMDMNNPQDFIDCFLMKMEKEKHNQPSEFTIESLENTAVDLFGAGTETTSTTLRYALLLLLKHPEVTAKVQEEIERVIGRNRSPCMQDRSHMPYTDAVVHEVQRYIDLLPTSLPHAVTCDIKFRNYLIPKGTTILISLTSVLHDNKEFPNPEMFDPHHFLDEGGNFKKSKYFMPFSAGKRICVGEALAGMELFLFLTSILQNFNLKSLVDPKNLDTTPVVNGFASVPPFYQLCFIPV

[16] = cynomolgus monkey, in vivo, po, 2 mg/kg
[17] = biological target: Serine/threonine-protein kinase PAK 2 (Homo sapiens, UniProt Q13177); test: Inhibition of PAK2 (unknown origin)
Serine/threonine-protein kinase PAK 2, sequence (Q13177 whole entry): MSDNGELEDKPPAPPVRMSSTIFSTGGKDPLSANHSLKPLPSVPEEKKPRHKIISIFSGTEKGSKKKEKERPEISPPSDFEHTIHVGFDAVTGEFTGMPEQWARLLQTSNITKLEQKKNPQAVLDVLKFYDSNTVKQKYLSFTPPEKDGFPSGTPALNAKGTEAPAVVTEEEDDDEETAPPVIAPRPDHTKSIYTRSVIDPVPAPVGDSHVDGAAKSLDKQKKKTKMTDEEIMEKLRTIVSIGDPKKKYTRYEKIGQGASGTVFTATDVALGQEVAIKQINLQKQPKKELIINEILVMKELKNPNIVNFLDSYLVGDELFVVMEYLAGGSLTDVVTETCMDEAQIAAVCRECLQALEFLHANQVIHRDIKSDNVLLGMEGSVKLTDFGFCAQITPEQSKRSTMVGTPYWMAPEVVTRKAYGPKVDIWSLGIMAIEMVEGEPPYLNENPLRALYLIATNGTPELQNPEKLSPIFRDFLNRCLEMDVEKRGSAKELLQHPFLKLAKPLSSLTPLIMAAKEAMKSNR

[18] = Toxicity in C57BL/6 mouse implanted with mouse MC38 cells assessed as increase in survival at low dose, po BID measured after 12 days; assay type: organism-based; settings: in vivo, 288 h, time 12 day
[19] = biological target: Interleukin-1 receptor-associated kinase 4 (Homo sapiens, UniProt Q9NWZ3); test: Inhibition of IRAK4 (unknown origin)
[20] = biological target: Serine/threonine-protein kinase PLK4 (Homo sapiens, UniProt O00444); test: Inhibition of PLK4 (unknown origin)
Serine/threonine-protein kinase PLK4, sequence (O00444 whole entry): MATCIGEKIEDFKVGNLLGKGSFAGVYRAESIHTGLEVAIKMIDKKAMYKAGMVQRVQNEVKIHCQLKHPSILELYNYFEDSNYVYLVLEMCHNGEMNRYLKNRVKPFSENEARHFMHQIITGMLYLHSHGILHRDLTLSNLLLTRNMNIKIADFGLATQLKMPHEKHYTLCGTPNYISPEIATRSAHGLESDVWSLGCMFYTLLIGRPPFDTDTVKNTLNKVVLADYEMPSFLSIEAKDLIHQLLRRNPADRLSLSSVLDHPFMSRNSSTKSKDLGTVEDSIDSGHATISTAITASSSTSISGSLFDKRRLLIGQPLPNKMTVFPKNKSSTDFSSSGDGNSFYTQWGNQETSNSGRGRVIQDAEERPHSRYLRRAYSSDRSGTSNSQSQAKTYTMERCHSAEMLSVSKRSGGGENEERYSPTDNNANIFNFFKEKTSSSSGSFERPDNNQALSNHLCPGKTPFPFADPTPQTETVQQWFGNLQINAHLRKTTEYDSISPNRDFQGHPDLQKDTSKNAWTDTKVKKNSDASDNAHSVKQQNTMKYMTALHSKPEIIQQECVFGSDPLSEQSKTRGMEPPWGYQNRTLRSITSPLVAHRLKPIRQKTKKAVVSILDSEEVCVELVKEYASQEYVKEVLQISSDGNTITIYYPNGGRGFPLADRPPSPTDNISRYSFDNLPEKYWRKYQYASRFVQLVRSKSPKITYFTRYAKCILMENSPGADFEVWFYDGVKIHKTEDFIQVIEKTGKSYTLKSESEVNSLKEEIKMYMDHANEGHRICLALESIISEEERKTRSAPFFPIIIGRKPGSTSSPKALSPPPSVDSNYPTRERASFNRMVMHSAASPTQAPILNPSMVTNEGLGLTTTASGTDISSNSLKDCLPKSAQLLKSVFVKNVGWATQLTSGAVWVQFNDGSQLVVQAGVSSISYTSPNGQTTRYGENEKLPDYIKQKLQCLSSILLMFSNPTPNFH

[21] = system: MC-38; test: Synergistic antitumor activity against mouse MC38 cells implanted in C57BL/6 mouse model assessed as tumor growth inhibition at high dose, po BID measured after 12 days in presence of anti-PD-1 relative to control; assay type: functional; settings: time 12 day
[22] = biological target: Cytochrome P450 1A2 (Homo sapiens, UniProt P05177); test: Inhibition of CYP1A2 in human liver microsomes using phenacetin O-demethylation as substrate incubated for 10 mins in presence of NADPH by LC-MS/MS analysis; assay type: ADME, Microsome
[23] = Toxicity in C57BL/6 mouse implanted with mouse MC38 cells assessed as increase in survival at low dose, po BID measured after 12 days in presence of anti-PD-1; assay type: organism-based; settings: in vivo, 288 h, time 12 day
[24] = biological target: Non-receptor tyrosine-protein kinase TYK2 (Homo sapiens, UniProt P29597); test: Inhibition of TYK2 (unknown origin)
Non-receptor tyrosine-protein kinase TYK2, sequence (P29597 whole entry): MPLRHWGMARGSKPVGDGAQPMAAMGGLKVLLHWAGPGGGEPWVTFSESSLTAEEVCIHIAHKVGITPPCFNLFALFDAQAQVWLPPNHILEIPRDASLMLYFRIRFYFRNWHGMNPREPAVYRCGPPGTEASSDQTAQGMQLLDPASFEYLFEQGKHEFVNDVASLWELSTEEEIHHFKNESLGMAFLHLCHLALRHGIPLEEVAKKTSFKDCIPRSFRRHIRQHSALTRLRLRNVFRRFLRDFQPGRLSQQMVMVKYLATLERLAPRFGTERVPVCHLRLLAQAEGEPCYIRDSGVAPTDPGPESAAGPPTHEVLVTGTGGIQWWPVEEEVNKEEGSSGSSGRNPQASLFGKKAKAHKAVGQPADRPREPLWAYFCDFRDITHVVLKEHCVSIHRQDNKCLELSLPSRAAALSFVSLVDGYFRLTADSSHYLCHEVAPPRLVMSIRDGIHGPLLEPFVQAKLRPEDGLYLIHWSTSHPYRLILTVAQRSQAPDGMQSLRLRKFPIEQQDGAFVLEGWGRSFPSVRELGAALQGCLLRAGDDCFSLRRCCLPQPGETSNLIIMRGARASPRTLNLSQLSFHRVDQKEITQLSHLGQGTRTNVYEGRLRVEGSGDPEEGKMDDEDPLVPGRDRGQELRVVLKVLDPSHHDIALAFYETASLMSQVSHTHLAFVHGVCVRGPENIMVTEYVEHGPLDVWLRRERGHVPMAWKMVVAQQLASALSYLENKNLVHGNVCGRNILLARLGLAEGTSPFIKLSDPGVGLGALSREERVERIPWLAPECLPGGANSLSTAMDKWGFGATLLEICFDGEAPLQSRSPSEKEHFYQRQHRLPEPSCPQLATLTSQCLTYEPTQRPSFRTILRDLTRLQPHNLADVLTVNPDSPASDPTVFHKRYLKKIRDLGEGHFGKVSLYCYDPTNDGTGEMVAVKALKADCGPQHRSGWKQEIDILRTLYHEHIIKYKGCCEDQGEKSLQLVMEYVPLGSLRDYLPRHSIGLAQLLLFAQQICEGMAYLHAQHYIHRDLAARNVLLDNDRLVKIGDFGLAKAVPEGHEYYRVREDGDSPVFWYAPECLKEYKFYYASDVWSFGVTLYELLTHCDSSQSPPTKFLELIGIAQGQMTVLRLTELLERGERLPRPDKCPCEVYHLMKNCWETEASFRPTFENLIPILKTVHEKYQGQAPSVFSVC

[25] = biological target: Cytochrome P450 2C19 (Homo sapiens, UniProt P33261); test: Inhibition of CYP2C19 in human liver microsomes using S-mephenytoin 4-hydroxylation as substrate incubated for 10 mins in presence of NADPH by LC-MS/MS analysis; assay type: ADME, Microsome
Cytochrome P450 2C19, sequence (P33261 whole entry): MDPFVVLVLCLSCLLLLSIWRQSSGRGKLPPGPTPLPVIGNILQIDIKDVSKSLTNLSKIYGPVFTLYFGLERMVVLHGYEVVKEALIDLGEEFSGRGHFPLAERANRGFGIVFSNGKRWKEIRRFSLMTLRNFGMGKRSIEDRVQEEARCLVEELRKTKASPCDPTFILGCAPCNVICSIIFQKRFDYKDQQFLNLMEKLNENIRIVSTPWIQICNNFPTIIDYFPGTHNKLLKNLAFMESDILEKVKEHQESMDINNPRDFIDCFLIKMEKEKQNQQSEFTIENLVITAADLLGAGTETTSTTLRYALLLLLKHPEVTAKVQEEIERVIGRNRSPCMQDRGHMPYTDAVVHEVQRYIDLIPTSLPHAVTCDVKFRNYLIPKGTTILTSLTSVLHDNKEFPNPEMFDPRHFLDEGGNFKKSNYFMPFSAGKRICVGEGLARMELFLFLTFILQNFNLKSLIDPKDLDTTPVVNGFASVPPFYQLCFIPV

[26] = Oral bioavailability in Balb/c mouse at 10 mg/kg; assay type: ADME, organism-based; settings: in vivo
[27] = Dose normalized AUC (0 to 24 hrs) in Sprague-Dawley rat at 10 mg/kg, po; assay type: ADME, organism-based; settings: in vivo
[28] = Effect on IFN-gamma secretion in human T cells by ELISA method; assay type: functional, cell-based; settings: T-cell
[29] = Toxicity in C57BL/6 mouse implanted with mouse MC38 cells assessed as effect on body weight loss at high dose, po BID measured after 12 days; assay type: organism-based; settings: in vivo, 288 h, time 12 day
[30] = Plasma protein binding in human assessed as unbound fraction at 2 uM incubated for 4 hrs by LC-MS/MS analysis; assay type: ADME, cell-free
[31] = Permeability of the compound in human Caco-2 cells measured after 90 mins by UPLC-MS/MS analysis; assay type: ADME, cell-based; settings: read-out: permeability
[32] = dog, in vivo, po, 2 mg/kg

In the case of `COc1cc(Nc2ccc3c(n2)CN(C)C32CCN(C3COC3)CC2)c(C(N)=O)nc1-c1cccc2c1ncn2C`, the solubility kinetic at 24 h [1] is reported as 2.14 µM (≈ 1.19 µg/mL), the Vd [2] is reported as 5.07 L/kg and the Vd [3] is reported as 2.13 L/kg. The EC50 [4] was 38.8 nM, the Activity [5] was “Non-toxic” and the IC50 [6] was 5.14 µM. For the same molecule, the bioavailability [7] was 34.7%, the Activity [8] was “Non-toxic” and the IC50 [9] was 2990 nM. The IC50 [10] was 325 nM, the IC50 [11] was > 10 µM and the IC50 [12] was > 10 µM. The Vd [13] was 5.58 L/kg, the IC50 [14] was 377 nM and the IC50 [15] was > 50 µM. The AUC/dose [16] was 560.5 ng·h/mL, the IC50 [17] was > 10 µM and the Activity [18] was “Non-toxic”. The IC50 [19] was 3.5 µM, the IC50 [20] was > 10 µM and the TGI [21] was 83.3%. The IC50 [22] was > 50 µM, the Activity [23] was “Non-toxic” and the IC50 [24] was > 10 µM. The IC50 [25] was > 50 µM, the bioavailability [26] was 62.5% and the AUC/dose [27] was 593.6 ng·h/mL. The EC50 [28] was 49.2 nM, the Activity [29] was “Non-toxic” and the fraction unbound at 4 h, 2 µM [30] was 0.129. For the same molecule, the Papp at […] [31] was 4.2 ×10⁻⁶ cm/s and the AUC/dose [32] was 563 ng·h/mL.
